# Like-named read-outs stand apart in the source and are kept apart here.
# Tests used:
# [1] = tested on: inositol phosphate accumulation in heart tissue; experiment: Inositol phosphate accumulation in healthy (normoxic) heart tissue; design: species or system rat
# Procedure: (§1) Adult male sprague dawley rats 250-300 g were used. Where indicated, rats were treated with reserpine (5 mg/kg I.P. for 18 hrs prior to killing) to deplete endogenous noradrenaline stores.. Rats were heparinized 1 U/g I.P. 30 minutes prior to killing by decapitation. Hearts were rapidly excised and immediately chilled in ice-cold saline. Under ice-cold solution, hearts were cannulated via the ascending aorta as described by Langendorff and perfused retrogradely at a rate of 5 ml/min with HEPES-buffered Krebs solution equilibrated with 5%CO2 -95%O2 at 37° C. Initial perfusion was in a non-recirculating manner to remove internal blood. Hearts were allowed to warm up gradually and, when free of internal blood, transferred to a 37° C. water-jacketed organ bath containing carbogenated Krebs medium, and perfusion continued in a recirculating manner. Following a 15 minute equilibration period, hearts were labelled with [^3 H]-inositol, 2 μCi/ml for 2 h. Hearts were monitored throughout the labelling period for strong rhythmic beating.
# (§2) Inositol phosphates were extracted from ventricle samples in 3.5 ml ice-cold 5% trichloroacetic acid (TCA), 2.5 mM EDTA, 5 mM phytate solution, as described previously (21). Briefly, ventricles were homogenised with two 10 second passes of a "Polytron" homogenizer separated by 15 second periods on ice. Samples were homogenised further using a Potter-Elvejheim homogeniser followed by brief sonication. Homogenised samples were centrifuged (5000 rpm, 10 min, 4° C.) to remove TCA insoluble material. Supernatants were collected, and the remaining pellet re-extracted in 1.5 ml TCA, EDTA, phytate. Supernatants were pooled and freon, tri-n-ocylamine (1:1 v/v 0.75 ml:1 ml TCA solution) was added, mixed thoroughly, and phases separated by low speed centrifugation (2000 rpm, 10 min 4° C.). The resultant aqueous phase, containing inositol phosphates was collected and treated with proteinase K (50 μg/ml, 2 hr, 50° C.). This process was necessary to preserve the chromatography column. Treated samples were passed through a 1 ml Dowex-50 column (4% cross-linked 4-400 mesh size) and eluted with 1 ml water (22). Urea (0.05 M final) was added (23) and samples lyophilized prior to high performance liquid chromatography (HPLC) analysis. Recovery of inositol phosphates using this method was greater than 95% for each isomer, as estimated by addition of [^3 H]-labelled standards to extractions of unlabelled hearts.
# Inositol phosphates were separated by an anion-exchange HPLC system using a Whatman Partisil 10μ SAX column in a Waters Radial Compression Unit, employing a complex ammonium phosphate gradient, pH 3.8 from 0-2 M as described previously (24). Inositol phosphates were detected and quantitated using an on-line […] (model CR, Radiomatic Instruments) All peaks were identified by comparison with commercial standards. Nucleotide standards AMP, ADP, and ATP were run with samples to assess column performance.
# [2] = tested on: in situ perfused rat hearts; settings: for Reperfusion-induced arrhythmias VF % incidence / Reperfusion-induced arrhythmias VT % incidence: control 83; for arrhythmias occurring during the ischaemic phase: at the higher concentrations
# Procedure: (§3) A model of in situ perfused rat hearts subjected to 20 minutes coronary artery occlusion to induce ischaemia, followed by reperfusion was used to investigate reperfusion-induced arrhythmias.
# (§4) Rats (250-300 g) were anaesthetised (pentobarbitone 60 mg/kg, I.P.) and heparinised (200 U/rat I.V.) The thorax was then opened and a metal cannula (ID 1 mm) inserted and tied into the ascending aorta, to commence Langendorff perfusion in situ (31). The interval from opening the chest to commencing heart perfusion was between 50 and 70 seconds. The perfusate was Krebs buffer, with coronary flow controlled by a Ismatac peristaltic pump at a rate of 5 ml/g heart weight/min for the non-ischaemic perfusion. At this flow rate the coronary perfusion pressure was between 32-38 mmHg, measured by pressure transducer (Gould Statham model p23) connected to the sidearm of the perfusion line. Following aortic cancellation, pulmonary vessels were tied off. In some preparations, ventricular pressure was measured by inserting a Millar micro-tip transducer catheter into the left ventricular cavity via the apex. All parameters--coronary perfusion pressure, ventricular pressure, and epicardial ECG, were constantly recorded on a Grass model 7 polygraph. Two hearts were perfused and simultaneously studied.
# (§5) A silk suture (4.0) was positioned loosely around the left coronary artery 2-3 mm from its origin. Two silk releasing rings were placed around the suture for subsequent release of occlusion. Successful occlusion of the artery, inducing regional ischaemia, was indicated by increases in coronary perfusion pressure of at least 30%. Perfusion pressure was adjusted to non-ischaemic perfusion levels during the ischaemic period.
# (§6) Drugs were added to the perfusion via a Harvard Model 22 pump. The drug flow was less than 1% of perfusion flow to ensure constant perfusate parameters. Unless mentioned otherwise, the drugs were present 10 minutes before, and during the entire ischaemic and reperfusion periods.
# (§7) Heart preparations were allowed to stabilise for at least 20 minutes prior to commencing studies. Following 10 minute drug incubation, the left coronary artery was ligated to induce local ischaemia, for a period of 20 minutes. At the end of this ischaemic period, the ligature was released and hearts perfused at pre-ischaemic flow for a period of 5 minutes. Ventricular arrhythmias, occurring during ischaemia or during the first 2 minutes of reperfusion were defined according to the Lambeth Conventions (32).
# Incidence of arrhythmias was analysed using a .chi.^2 test, with n≥8 for each group.
# [3] = tested on: isolated neonatal cardiomyocytes; experiment: Inositol phosphate accumulation in isolated neonatal cardiomyocytes; assay type: cell-based
# [4] = tested on: PC-PLD brain; settings: read-out: average EC50 PC-PLD brain; from the literature (35); cited from earlier work
# [5] = tested on: Ins(1,4,5)P3 release; experiment: Ins(1,4,5)P3 mass in isolated perfused rat hearts, 2 min reperfusion after 20 min global ischaemia (competitive binding assay); settings: for Ins(1,4,5)P3 mass: 2 min reperfusion after 20 min global ischaemia, control 200 ± 18
# Procedure: as §1
# (§8) Following labelling, the [^3 H]-inositol-containing medium was removed, and replaced with Krebs medium containing propranolol (10^-6 M) and lithium chloride (50 mM) to block β-adrenergic receptors and to inhibit InsP metabolism by InsP 1'-phosphatase respectively (20). Hearts were perfused with propranolol, LiCi solution for 10 minutes prior to ischaemia. Antagonists, when administered, were included in this 10 minute preincubation. Normothermic global ischaemia was induced by terminating perfusion for various times up to 30 minutes. Reperfusion was examined following a 20 minute ischaemic period by resuming perfusion at 5 ml/min. Reactions were terminated by freezing hearts in liquid N2 following excision at the atrioventricular junction. Frozen ventricles were weighed and inositol phosphates extracted as described below.
# as §2
# Mass of Ins(1,4,5)P3 was measured using a competitive binding assay (Amersham TRK 1000) essentially as described previously (26). Ventricle samples were prepared as described above except for the omission of [^3 H]-label during the 2 hr perfusion of hearts prior to ischaemia, and for the use of 5 mm ATP instead of phytate in the extraction procedure.
# Protein concentration was determined in aliquots of TCA pellet following InsP extraction using a modified Lowry method with Bovine Serum Albumin as a standard.
# Values presented are mean ±SEM, for n=4 unless otherwise stated. Statistical analysis of results involved Students' unpaired "t-test" for all InsP data.
# [6] = tested on: PI-PLC kidney me; settings: membrane enzyme; from the literature (35); cited from earlier work
# [7] = tested on: PI-PLC heart rep; experiment: Inhibition of PI-PLC in hearts under reperfusion conditions; design: species or system rat
# Procedure: as §1, §8
# Mass of Ins(1,4,5)P3 was measured using a competitive binding assay (Amersham TRK 1000) essentially as described previously (26). […]
# [8] = tested on: PI-PLC kidney cy; settings: cytosolic enzyme; from the literature (35); cited from earlier work
# [9] = tested on: Ins(1,4,5)P3 release; experiment: Thrombin-stimulated release of Ins(1,4,5)P3 in heart tissue; settings: at concentrations similar to those inhibiting the noradrenaline response under reperfusion
# [10] = tested on: hearts from reserpinized rats; experiment: Arrhythmic effect of thrombin under reperfusion conditions, perfused hearts from reserpinized rats; design: species or system rat; settings: reserpinized hearts
# Procedure: as §3, §4, §5, §6, §7
# The finding that thrombin directly stimulated release of Ins(1,4,5)P3 in heart indicates the possibility that thrombin might cause arrhythmias directly via this mechanism. Experiments were performed using hearts from reserpinized rats so that arrhythmic events initiated by noradrenaline were eliminated. Reperfusion arrhythmias were not observed in hearts from reserpinized animals. […] Furthermore, these arrhythmias were inhibited by gentamicin, indicating a relationship to release of Ins(1,4,5)P3 (Table 2).
# [11] = tested on: rats
# Procedure: Rats were not heparinised so that effects of thrombin will be contributory to observed arrhythmias.
# Rats were anaesthetised with pentobarbitone (60 mg/Kg IP) and artificially ventilated with room air. The chests were opened via the forth intercostal space, and the heart exposed. A 4.0 suture was placed around the left coronary artery and then passed through a guided polyethylene cannula. The thorax was closed leaving the threaded cannula outside the chest. The right carotid artery was cannulated for recording of arterial blood pressure. After stabilisation for 20-30 minutes, the left coronary artery was ligated by pulling the ends of the ligature through the tube and securing them by clamping the tube together with the threads. The ischaemic period was 10 minutes followed by reperfusion. Arterial blood pressure and a lead II ECG was recorded 3 minutes before and during ischaemia, and for the first 5 minutes of reperfusion. […] The size of the ischaemic area was determined at the end of the experiment by the dye method. […] Gentamicin was infused at a dose of 2.5-10 mg/Kg/min prior to initiation of ischaemia and maintained throughout the protocol.
molecule,measurement,setting,value
COc1ccc2c(c1)CC[C@@H]1[C@@H]2CC[C@]2(C)[C@@H](NCCCCCCN3C(=O)C=CC3=O)CC[C@@H]12 [U-73122],"release of Ins(1,4,5)P3 in intact heart preparations",[1],did not inhibit
same,inhibition of accumulation of inositol phosphates,[1]; heart tissue under noradrenaline stimulation,did not inhibit
same,anti-arrhythmic activity,[2],without anti-arrhythmic activity
same,VF%,"[2]; 10^-6 M, n 12, control 63",61%
same,VT%,"[2]; 10^-6 M, n 12, control 100",88%
same,inhibition of accumulation of inositol phosphates,[3],fully effective inhibitor
[H]/N=C(/N)N[C@H]1[C@H](O)[C@@H](O)[C@H](O[C@@H]2O[C@@H](C)[C@](O)(C=O)[C@H]2O[C@@H]2O[C@@H](CO)[C@H](O)[C@@H](O)[C@@H]2NC)[C@@H](N/C(N)=N\[H])[C@@H]1O [streptomycin],EC50,[4],125 µM
same,"potency of inhibition of reperfusion-induced Ins(1,4,5)P3 release relative to neomycin",[5],more potent inhibitors
same,"Ins(1,4,5)P3 mass",[5]; 0.015 mM,201 ± 16 pmol/mg protein
same,"Ins(1,4,5)P3 mass",[5]; 0.15 mM,167 ± 5 pmol/mg protein
same,"Ins(1,4,5)P3 mass",[5]; 1.5 mM,94 ± 11 pmol/mg protein
same,EC50,[6],2850 µM
same,effect on reperfusion arrhythmias,[2],inhibited
same,Reperfusion-induced arrhythmias VF % incidence,[2]; 0.015 mM,27%
same,Reperfusion-induced arrhythmias VT % incidence,[2]; 0.015 mM,45%
same,Reperfusion-induced arrhythmias VF % incidence,[2]; 0.15 mM,6%
same,Reperfusion-induced arrhythmias VT % incidence,[2]; 0.15 mM,25%
same,Reperfusion-induced arrhythmias VF % incidence,[2]; 1.5 mM,27%
same,Reperfusion-induced arrhythmias VT % incidence,[2]; 1.5 mM,45%
same,arrhythmias occurring during the ischaemic phase,[2],partial inhibition
same,EC50,[7],150 µM
same,EC50,[8],380 µM
gentamicin,"potency of inhibition of reperfusion-induced Ins(1,4,5)P3 release relative to neomycin",[5],more potent inhibitors
same,"Ins(1,4,5)P3 mass",[5]; 0.015 mM,145 ± 2 pmol/mg protein
same,"Ins(1,4,5)P3 mass",[5]; 0.15 mM,136 ± 22 pmol/mg protein
same,"Ins(1,4,5)P3 mass",[5]; 1.5 mM,102 ± 17 pmol/mg protein
same,EC50,[6],500 µM
same,"inhibition of thrombin-stimulated release of Ins(1,4,5)P3",[9],inhibited
same,thrombin-induced reperfusion arrhythmias,[10],inhibited
same,size of ischaemic area vs control animals,"[11]; dye method, 2.5-10 mg/Kg/min",no difference
same,arrhythmias occurring under ischaemic conditions in vivo,[11]; infused 2.5-10 mg/Kg/min,effective
same,development of reperfusion arrhythmias in vivo,[11]; infused 2.5-10 mg/Kg/min,inhibited
same,VF% reperfusion arrhythmias in vivo,"[11]; infused 2.5-10 mg/Kg/min, 10 min occlusion then reperfusion, n 10, control 68",0%
same,VT% reperfusion arrhythmias in vivo,"[11]; infused 2.5-10 mg/Kg/min, 10 min occlusion then reperfusion, n 10, control 100",30%
same,effect on reperfusion arrhythmias,[2],inhibited
same,rank of potency against reperfusion arrhythmias,[2],most potent agent tested
same,Reperfusion-induced arrhythmias VF % incidence,[2]; 0.015 mM,25%
same,Reperfusion-induced arrhythmias VT % incidence,[2]; 0.015 mM,58%
same,Reperfusion-induced arrhythmias VF % incidence,[2]; 0.15 mM,27%
same,Reperfusion-induced arrhythmias VT % incidence,[2]; 0.15 mM,27%
same,Reperfusion-induced arrhythmias VF % incidence,[2]; 1.5 mM,8%
same,Reperfusion-induced arrhythmias VT % incidence,[2]; 1.5 mM,17%
same,arrhythmias occurring during the ischaemic phase,[2],partial inhibition
same,EC50,[7],15 µM
same,EC50,[8],130 µM
